According to the supplement of paper PMC10307832:

Experiments:
Assay in all cases: relative viability (nuclei count vs DMSO), 5 days (fraction); higher = more cells survive
[1] = compound: C1=CC=C(C(=C1)C2=CC=C(C=C2)C3=CSC4=C3C(=C(C(=O)N4)C#N)O)O + N=C(N)NC(=N)NCCc1ccccc1 [Phenformin] (partner 250 µM)
Method in brief: (§1)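 Lung cancer cell lines were seeded in 1536-well plates and dosed by pin tool the next day, with either a single drug or a fixed anchor-drug dose combined with five library-drug doses (not always all listed) spaced in √10 steps. Five days later, one step fixed the cells and stained their nuclei (final 0.05% Triton X-100, 1% formaldehyde, 1 ug/ml Hoechst), and nuclei were counted on 4× images. Relative viability is the nuclei count in treated wells divided by the count in vehicle wells, and each value is the median of duplicate plates.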

[2] = compound: C1=CC=C(C(=C1)C2=CC=C(C=C2)C3=CSC4=C3C(=C(C(=O)N4)C#N)O)O + Nc1ncn([C@H]2C[C@H](O)[C@@H](CO)O2)c(=O)n1 [Decitabine] (partner 2 µM)
Method in brief: as §1

TGX 221 + Alpelisib = compound: CC1=CN2C(=O)C=C(N=C2C(=C1)C(C)NC3=CC=CC=C3)N4CCOCC4 [TGX 221] + Cc1nc(NC(=O)N2CCC[C@H]2C(N)=O)sc1-c1ccnc(C(C)(C)C(F)(F)F)c1 [Alpelisib] (partner 2 µM)
Method in brief: as §1

Ricolinostat + Lapatinib = compound: O=C(CCCCCCNC(=O)c1cnc(N(c2ccccc2)c2ccccc2)nc1)NO [Ricolinostat] + CS(=O)(=O)CCNCc1ccc(-c2ccc3ncnc(Nc4ccc(OCc5cccc(F)c5)c(Cl)c4)c3c2)o1 [Lapatinib] (partner 2 µM)
Method in brief: as §1

| Cell Line | relative viability ([1]; first compound 0.08 µM) | relative viability ([1]; first compound 0.253 µM) | relative viability ([1]; first compound 0.8 µM) | relative viability ([1]; first compound 2.53 µM) | relative viability ([1]; first compound 8 µM) | relative viability ([2]; first compound 0.08 µM) | relative viability ([2]; first compound 0.253 µM) | relative viability ([2]; first compound 0.8 µM) | relative viability ([2]; first compound 2.53 µM) | relative viability ([2]; first compound 8 µM) | relative viability (TGX 221 + Alpelisib; first compound 0.08 µM) | relative viability (TGX 221 + Alpelisib; first compound 0.253 µM) | relative viability (TGX 221 + Alpelisib; first compound 0.8 µM) | relative viability (TGX 221 + Alpelisib; first compound 2.53 µM) | relative viability (TGX 221 + Alpelisib; first compound 8 µM) | relative viability (Ricolinostat + Lapatinib; first compound 0.08 µM) | relative viability (Ricolinostat + Lapatinib; first compound 0.253 µM) | relative viability (Ricolinostat + Lapatinib; first compound 0.8 µM) | relative viability (Ricolinostat + Lapatinib; first compound 2.53 µM) |
| --- | --- | --- | --- | --- | --- | --- | --- | --- | --- | --- | --- | --- | --- | --- | --- | --- | --- | --- | --- |
| SK-LU-1 | 0.378 | 0.44 | 0.538 | 0.639 | 0.566 | 0.506 | 0.572 | 0.593 | 0.575 | 0.497 | 0.948 | 0.788 | 0.903 | 0.9 | 0.731 | 0.75 | 0.782 | 0.854 | 0.653 |
| SK-MES-1 | 0.643 | 0.682 | 0.659 | 0.708 | 0.615 | 0.382 | 0.408 | 0.383 | 0.404 | 0.376 | 0.843 | 0.628 | 0.785 | 0.549 | 0.476 | 0.403 | 0.466 | 0.439 | 0.456 |
| SW 1573 | 0.343 | 0.351 | 0.343 | 0.333 | 0.233 | 0.447 | 0.536 | 0.552 | 0.468 | 0.425 | 0.63 | 0.495 | 0.577 | 0.433 | 0.393 | 0.941 | 1.23 | 1.12 | 1 |
| UMC-11 | 0.309 | 0.404 | 0.344 | 0.291 | 0.27 | 0.668 | 1.02 | 0.495 | 0.477 | 0.57 | 0.955 | 0.961 | 0.966 | 1.03 | 1.06 | 0.699 | 0.944 | 0.906 | 0.314 |
